From the NIST ThermoML archive (doi:10.1021/je200477s)

Test: wn = mass fraction of the nth substance listed
Details: 101 kPa, Liquid, Pycnometric method

O [water] + CCCCn1cc[n+](C)c1.COS(=O)(=O)[O-]
w2 = 0
Details | mass density [kg/m3]
293.15 K | 998.3
295.15 K | 997.9
297.15 K | 997.4
299.15 K | 996.9
301.15 K | 996.3

CCCCn1cc[n+](C)c1.COS(=O)(=O)[O-] [1-butyl-3-methylimidazolium methyl sulfate] + O
mass density [kg/m3]
Details | w1 = 0.1501 | w1 = 0.2002 | w1 = 0.2991 | w1 = 0.4993 | w1 = 0.6519 | w1 = 0.8012 | w1 = 0.8701 | w1 = 0.9325 | w1 = 1
293.15 K | 1025.8 | 1035.9 | 1056.1 | 1100.2 | 1134.9 | 1169.4 | 1184.8 | 1198.2 | 1211.7
295.15 K | 1025.1 | 1035.2 | 1055.2 | 1099 | 1133.5 | 1168 | 1183.4 | 1196.8 | 1210.4
297.15 K | 1024.4 | 1034.4 | 1054.3 | 1097.7 | 1132.2 | 1166.6 | 1182.1 | 1195.5 | 1209.1
299.15 K | 1023.7 | 1033.6 | 1053.3 | 1096.5 | 1130.7 | 1165.2 | 1180.7 | 1194.1 | 1207.7
301.15 K | 1022.9 | 1032.8 | 1052.3 | 1095.2 | 1129.4 | 1163.8 | 1179.3 | 1192.8 | 1206.4
303.15 K | 1022.2 | 1031.9 | 1051.3 | 1093.9 | 1128 | 1162.4 | 1177.9 | 1191.4 | 1205.1
